Assay: gradient 5% acetonitrile 3 min, to 50% in 2 min, to 85% in 15 min, held 3 min, 100 µL/min
Conditions: column: Zorbax Extend-C18 2.1 x 50 mm; eluents: water / acetonitrile, 0.1% formic acid
How it was run: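 Retention times come from adduct peaks that were picked computationally and then checked by hand. The standards, pure and pooled in mixtures of ~100 molecules, were run on a Zorbax Extend-C18 column (2.1 × 50 mm, 1.8 μm) at 100 μL/min with water and acetonitrile, each with 0.1% formic acid. Detection was by quadrupole time-of-flight mass spectrometry in positive and negative ionization mode, with a dead volume of 40 μL and a dwell volume of 900 μL.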

SMILES	RP-LC retention time [s]
CC1(C)CC(=O)c2cn(-c3ccccc3)c(=O)c(C(=O)N3CCOCC3)c2C1	694
CCOc1ccc(-c2nc(CN3C(=O)C(O)(c4ccccc4)c4ccccc43)c(C)o2)cc1 (stereo unspecified)	1110
Cc1c(Cl)cccc1NC(=O)NCC(c1cccnc1)c1cn(C)c2ccccc12 (stereo unspecified)	773
Cc1ccc(C)c(NC(=O)CCCN2C(=O)COc3ccc(C)cc32)c1	978
COc1ccc(OCc2noc(CNC(=O)C(C)n3nnc4ccccc4c3=O)n2)cc1 (stereo unspecified)	768
CCn1nnc2ccc(-c3noc(-c4ccc(OC)cc4)n3)cc21	1030
Cc1ccc(CCC(=O)Nc2nc(-c3ccc4c(c3)NC(=O)C(C)O4)c(C)s2)cc1 (stereo unspecified)	1010
Cc1ccccc1-n1c(=O)c2sccc2n(Cc2nc(-c3ccc(C(C)(C)C)cc3)no2)c1=O	1080
COc1ccc(C(=O)Nc2nnc(SCc3nnc(-c4ccccc4)o3)s2)cc1OC	830
CCCN1CCN(C(=O)CC(C)S(=O)(=O)c2ccc3c(c2)CCN3C(C)=O)CC1 (stereo unspecified)	586
NC(=O)c1ccsc1NC(=O)c1c[nH]c2ccccc12	673
CC(C)CCNC(=O)N1C[C@@H]2CCCN3CCC[C@@H]([C@H]23)[C@H]1CCCC(=O)NCC1CC1	625
COCc1cc(=O)n(CC(=O)NCc2ccccc2Cl)c(N)n1	619
O=S(=O)(c1cc(-c2nnc(C3CC3)o2)co1)N1CCC(Cc2ccccc2)CC1	1080
COCCn1cnc2c(-c3ccccc3)cn(CC(=O)NCC3CCCO3)c2c1=O (stereo unspecified)	678
COc1ccc(CC(=O)N2CCC3(CC2)NC(=O)c2cc(C)ccc2N3C)cc1	769
CN1c2ccc(F)cc2C(=O)NC12CCN(C(=O)Cc1ccc(Cl)cc1)CC2	795
CCC(C)Nc1nc(-c2ccc(OC)cc2)nc2ccccc12 (stereo unspecified)	800
Cc1cc(OCC(=O)N2CCCCC2CCN2CCOCC2)ccc1Cl (stereo unspecified)	689
Cc1[nH]c2ccc(-c3nnc(SCC(=O)NC(C)c4nc5ccccc5[nH]4)o3)cc2c1C (stereo unspecified)	667
Cc1ccc(CN2CCN(CC(=O)N3CCN(Cc4ccccc4)CC3)C(=O)C2=O)cc1	640
O=C1CC(c2nc(-c3ccc4c(c3)OCO4)no2)CN1c1ccc(Cl)cc1 (stereo unspecified)	1030

SMILES	RP-LC retention time [s]
O=C1NC(=O)/C(=C/c2ccc(-c3ccc(F)cc3O)o2)S1	923
Cc1ccccc1NC(=O)N1CCCC1c1nc(-c2cccc(Cl)c2)no1 (stereo unspecified)	1050
O=C(c1ccc2ncnc(N3CCCCC3)c2c1)N1CCCCC1	636
CC(C)c1cc(C2CCCN2C(=O)NC2CCCC2)on1 (stereo unspecified)	823
Cc1ccc(C)c2sc(OC3CCN(C(=O)c4ccc(=O)n(C)n4)CC3)nc12	911
O=C(C1CCN(S(=O)(=O)c2ccc3[nH]c(=O)ccc3c2)CC1)N1CCN(c2ccccc2F)CC1	754
COc1c(C(=O)NCc2ccccc2C)sc2cccc(F)c12	1130
OC(COCc1ccc(Cl)cc1)CN1CCCCC1 (stereo unspecified)	580
CC(=O)Nc1ccc(NC(=O)C2CCCN(C(=O)c3cc(-c4ccncc4)n[nH]3)C2)cc1 (stereo unspecified)	566
CCCN1CCN(C(=O)CC(c2cc(OC)c(OC)c(OC)c2)N2Cc3ccccc3C2=O)CC1 (stereo unspecified)	626
Cc1ccc(Oc2cccc(C(=O)Nc3ccc(-c4csc(C)n4)cc3)c2)nn1	751
CCc1nnc(-c2ccc3ccn(CC(=O)Nc4cccc(OC)c4)c3c2)o1	839
CN1C(=O)[C@H]2CN(Cc3cccc(Br)c3)C[C@H]2C1=O	608
COc1ccc(S(=O)(=O)N2CCC(OCCOCc3ccccc3)CC2)cc1	1050
Cn1c(=O)oc2cc(-c3noc(CNC(=O)Cc4ccc(Cl)cc4)n3)ccc21	807
CCn1cc(CN2CCC(C(=O)NC(C)CCc3ccccc3)CC2)c2cc(Cl)ccc21 (stereo unspecified)	672
Cc1cc(Cl)ccc1NC(=O)CCc1c(C)nn(-c2cc(N(C)C)ncn2)c1C	862
O=C(CCc1c(-c2ccc(Cl)cc2)nc2ccccn12)Nc1cccc(F)c1	795
CCOc1ccc(C(=O)N2CCC(n3c(-c4ccoc4)nc4cccnc43)C2)cc1 (stereo unspecified)	756
COc1ccc(-c2noc(-c3nn(-c4ccc(C)cc4)ccc3=O)n2)cc1	919
Cc1nn(-c2ccc(-c3ccccc3)nn2)c(C)c1S(=O)(=O)N1CCOCC1	887
COCc1ncc(C)n1CCNC(=O)Nc1ccsc1C(=O)OC	615

SMILES	RP-LC retention time [s]
COc1ccc(S(=O)(=O)Cc2nc(-c3cccc(Br)c3)no2)cc1	1090
O=C(NCC1CCCO1)C1CCN(C(=O)c2ncn3c2COC(c2ccc(F)cc2)C3)CC1 (stereo unspecified)	658
CC(=O)N1C[C@@H]2CCCN3CCC[C@@H]([C@H]23)[C@H]1CCCC(=O)NCC(C)C	577
Cc1cnc(C2CCC2)n1CCNC(=O)C1(c2ccccc2)CC1	654
Cc1ccc(C)c(NC(=O)c2c(C)oc3nc(C)nc(N4CCOCC4)c23)c1	803
O=C(CSc1ccc(F)cc1)NCC1(c2ccc(F)cc2)CC1	909
CCOc1ccc(C2Cn3nnc(-c4nc(-c5ccc(OC)cc5)no4)c3CO2)cc1 (stereo unspecified)	1160
CC1CCN(CC2CCCN(C(=O)C3(c4ccccc4)CC3)CC2)CC1 (stereo unspecified)	660
Cc1noc(C)c1-c1ccc(S(=O)(=O)Nc2ccc(Br)cc2F)cc1	1010
CCN1CCN(c2c(S(=O)(=O)c3ccc(C)c(C)c3)cnc3cc(OC)c(OC)cc23)CC1	629
O=C(C1CCCO1)N1CCC(Cc2nncn2CC2CC2)CC1 (stereo unspecified)	578
CN(C)C(=O)C1CN(C(=O)c2cccc(Br)c2)CC12CCOCC2 (stereo unspecified)	619
CC(C)c1nnc(NC(=O)c2cc(Cl)ccc2Cl)s1	828
COc1ccc(N(C)C(=O)c2nc(C)n(C3CCN(S(C)(=O)=O)CC3)c2C)cc1	600
Cc1cc(C)cc(-c2nnc(Cc3nc(-c4ccccc4C)no3)o2)c1	1200
O=C(Nc1ccc(F)cc1)N1CCC(n2cnc3ccc(Cl)cc3c2=O)CC1	828
O=C(c1ccc(Br)o1)N1CCC(n2cnnc2C2CC2)CC1	631
CCOc1ccc(CC(=O)N2CCCC2c2c(C)noc2C)cc1 (stereo unspecified)	902
CC1(CNC(=O)c2ccc3c(c2)OCO3)CCOCC1	664
CCC(=O)N1CCC2(CC1)CC1C(=O)N(CC)C(=O)N1C2 (stereo unspecified)	626
CC(C)n1c(CCNC(=O)c2ccccc2Cl)nc2cccnc21	651
CCCCOc1ccc(NC(=O)c2cc(=O)c3cc(Cl)c(C)cc3o2)c2cccnc12	824

— the METLIN SMRT retention time set (Domingo-Almenara et al. 2019)
